According to patent US6977262B2, “Dihydropyrazolopyridine compounds and pharmaceutical use thereof” (Mitsubishi Pharma Corporation, priority 2001, dated 2005):

SMILES | melting point [°C]
N#CC1=C(C2CCC2)Nc2n[nH]cc2C1c1cccc(C#N)c1Br (centres unmarked) [Example 321, 4-(2-Bromo-3-cyanophenyl)-5-cyano-6-cyclobutyl-4,7-dihydro-2H-pyrazolo[3,4-b]pyridine] | 278
N#CC1=C(C2CCC2)Nc2n[nH]cc2C1c1cccc2nonc12 (centres unmarked) [Example 322, 4-(2,1,3-Benzoxadiazol-4-yl)-5-cyano-6-cyclobutyl-4,7-dihydro-2H-pyrazolo[3,4-b]pyridine] | 194
N#CC1=C(C2CCCCC2)Nc2n[nH]cc2C1c1cccc2nonc12 (centres unmarked) [Example 323, 4-(2,1,3-Benzoxadiazol-4-yl)-5-cyano-6-cyclohexyl-4,7-dihydro-2H-pyrazolo[3,4-b]pyridine] | 210
N#CC1=C(C2CCCCCC2)Nc2n[nH]cc2C1c1cccc2nonc12 (centres unmarked) [Example 324, 4-(2,1,3-Benzoxadiazol-4-yl)-5-cyano-6-cycloheptyl-4,7-dihydro-2H-pyrazolo[3,4-b]pyridine] | 228
N#CC1=C(C2CCCCC2)Nc2n[nH]cc2C1c1cccc(C#N)c1Br (centres unmarked) [Example 325, 4-(2-Bromo-3-cyanophenyl)-5-cyano-6-cyclohexyl-4,7-dihydro-2H-pyrazolo[3,4-b]pyridine] | 193
N#CC1=C(C2CCCCCC2)Nc2n[nH]cc2C1c1cccc(C#N)c1Br (centres unmarked) [Example 326, 4-(2-Bromo-3-cyanophenyl)-5-cyano-6-cycloheptyl-4,7-dihydro-2H-pyrazolo[3,4-b]pyridine] | 252
CCCC1=C(C#N)C(c2cccnc2)c2c[nH]nc2N1 (centres unmarked) [Example 327, 5-Cyano-4,7-dihydro-6-propyl-4-(pyridin-3-yl)-2H-pyrazolo[3,4-b]pyridine] | 201
CCCC1=C(C#N)C(c2ccccc2Cl)c2c(OC(=O)OC(C)(C)C)n[nH]c2N1 (centres unmarked) [Example 328, 3-t-Butoxycarbonyloxy-4-(2-chlorophenyl)-5-cyano-4,7-dihydro-6-propyl-1 H-pyrazolo[3,4-b]pyridine] | 182
COC(CC1=C(C#N)C(c2cccc3nonc23)c2c[nH]nc2N1)OC (centres unmarked) [Example 329, 4-(2,1,3-Benzoxadiazol-4-yl)-5-cyano-6-(2,2-dimethoxyethyl)-4,7-dihydro-2H-pyrazolo[3,4-b]pyridine] | 115
CCCC1=C(C#N)C(c2ccccc2Cl)c2c(n[nH]c2CC(OC)OC)N1 (centres unmarked) [Example 330, 4-(2-Chlorophenyl)-5-cyano-4,7-dihydro-3-(2,2-dimethoxyethyl)-6-propyl-2H-pyrazolo[3,4-b]pyridine] | 180
CCCC1=C(C#N)C(c2cccc3nocc23)c2c[nH]nc2N1 (centres unmarked) [Example 331, 4-(2,1-Benzoisoxazol-4-yl)-5-cyano-4,7-dihydro-6-propyl-2H-pyrazolo[3,4-b]pyridine] | 239
CC(C)C1=C(C#N)C(c2cccc3nocc23)c2c[nH]nc2N1 (centres unmarked) [Example 332, 4-(2,1-Benzoisoxazol-4-yl)-5-cyano-4,7-dihydro-6-isopropyl-2H-pyrazolo[3,4-b]pyridine] | 245
N#CC1=C(C2CC2)Nc2n[nH]cc2C1c1cccc2nocc12 (centres unmarked) [Example 333, 4-(2,1-Benzoisoxazol-4-yl)-5-cyano-6-cyclopropyl-4,7-dihydro-2H-pyrazolo[3,4-b]pyridine] | 248
CC(C)(C)OC(=O)n1cc(C2=C(C#N)C(c3cccc4nonc34)c3c[nH]nc3N2)c2ccccc21 (centres unmarked) [Example 334, 4-(2,1,3-Benzoxadiazol-4-yl)-5-cyano-6-(1-t-butoxycarbonylindol-3-yl)-4,7-dihydro-2H-pyrazolo[3,4-b]pyridine] | 202
N#CC1=C(c2c[nH]c3ccccc23)Nc2n[nH]cc2C1c1cccc2nonc12 (centres unmarked) [Example 335, 4-(2,1,3-Benzoxadiazol-4-yl)-5-cyano-4,7-dihydro-6-(indol-3-yl)-2H-pyrazolo[3,4-b]pyridine] | 238
CCCC1=C(C#N)C(c2ccccc2Cl)c2c(n[nH]c2C(OC)OC)N1 (centres unmarked) [Example 336, 4-(2-Chlorophenyl)-5-cyano-4,7-dihydro-3-dimethoxymethyl-6-propyl-2H-pyrazolo[3,4-b]pyridine] | 212
CCCC1=C(C#N)C(c2ccncc2)c2c[nH]nc2N1 (centres unmarked) [Example 337, 5-Cyano-4,7-dihydro-6-propyl-4-(pyridin-4-yl)-2H-pyrazolo[3,4-b]pyridine] | 224
CCCC1=C(C#N)C(c2cccc(C)c2[N+](=O)[O-])c2c[nH]nc2N1 (centres unmarked) [Example 338, 5-Cyano-4,7-dihydro-4-(3-methyl-2-nitrophenyl)-6-propyl-2H-pyrazolo[3,4-b]pyridine] | 250
Cc1cccc(C2C(C#N)=C(C(C)C)Nc3n[nH]cc32)c1[N+](=O)[O-] (centres unmarked) [Example 339, 5-Cyano-4,7-dihydro-4-(3-methyl-2-nitrophenyl)-6-isopropyl-2H-pyrazolo[3,4-b]pyridine] | 261

SMILES | melting point [°C]
Cc1cccc(C2C(C#N)=C(C3CC3)Nc3n[nH]cc32)c1[N+](=O)[O-] (centres unmarked) [Example 340, 5-Cyano-6-cyclopropyl-4,7-dihydro-4-(3-methyl-2-nitrophenyl)-2H-pyrazolo[3,4-b]pyridine] | 265
CCCC1=C(C#N)C(c2ccccc2Cl)c2c[nH]nc2N1C (centres unmarked) [Example 346, 4-(2-Chlorophenyl)-5-cyano-7-methyl-6-propyl-4,7-dihydro-2H-pyrazolo[3,4-b]pyridine] | 170 to 171
CCCC1=C(C#N)C(c2cccc(C#N)c2Br)c2c[nH]nc2N1C (centres unmarked) [Example 348, 4-(2-Bromo-3-cyanophenyl)-5-cyano-7-methyl-6-propyl-4,7-dihydro-2H-pyrazolo[3,4-b]pyridine] | 218 to 220
C=CCCC(=O)n1ncc2c1NC(CCC)=C(C#N)C2c1ccccc1Cl (centres unmarked) [Example 357, 4-(2-Chlorophenyl)-5-cyano-4,7-dihydro-1-(4-pentenoyl)-6-propyl-1H-pyrazolo[3,4-b]pyridine] | 140
C=CCCC(=O)n1cc2c(n1)NC(CCC)=C(C#N)C2c1ccccc1Cl (centres unmarked) [Example 358, 4-(2-Chlorophenyl)-5-cyano-4,7-dihydro-2-(4-pentenoyl)-6-propyl-2H-pyrazolo[3,4-b]pyridine] | 176 to 177
CCCC1=C(C#N)C(c2cccc(C)n2)c2c[nH]nc2N1 (centres unmarked) [Example 359, 5-Cyano-4,7-dihydro-4-(6-methylpyridin-2-yl)-6-propyl-2H-pyrazolo[3,4-b]pyridine] | 177 to 181
CCCC1=C(C#N)C(c2cccc(Br)c2)c2c[nH]nc2N1 (centres unmarked) [Example 362, 4-(3-Bromophenyl)-5-cyano-4,7-dihydro-6-propyl-2H-pyrazolo[3,4-b]pyridine] | 202 to 205
CCCC1=C(C#N)C(c2ccc(F)cc2Cl)c2c[nH]nc2N1 (centres unmarked) [Example 363, 5-Cyano-4,7-dihydro-4-(4-fluoro-2-chlorophenyl)-6-propyl-2H-pyrazolo[3,4-b]pyridine] | 209 to 212
CCCC1=C(C#N)C(c2cccc(N3CCOCC3)c2)c2c[nH]nc2N1 (centres unmarked) [Example 364, 5-Cyano-4,7-dihydro-4-(3-(morpholin-4-yl)phenyl)-6-propyl-2H-pyrazolo[3,4-b]pyridine] | 196 to 200
CC(C)C1=C(C#N)C(c2cccc(N3CCOCC3)c2)c2c[nH]nc2N1 (centres unmarked) [Example 365, 5-Cyano-4,7-dihydro-4-(3-(morpholin-4-yl)phenyl)-6-isopropyl-2H-pyrazolo[3,4-b]pyridine] | 254 to 257
N#CC1=C(C2CC2)Nc2n[nH]cc2C1c1cccc(N2CCOCC2)c1 (centres unmarked) [Example 366, 5-Cyano-6-cyclopropyl-4,7-dihydro-4-(3-(morpholin-4-yl)phenyl)-2H-pyrazolo[3,4-b]pyridine] | > 260
CC(C)(C)OC(=O)N1CCC(C2=C(C#N)C(c3cccc4nonc34)c3c[nH]nc3N2)CC1 (centres unmarked) [Example 1001, 4-(2,1,3-Benzoxadiazol-4-yl)-6-(1-t-butoxycarbonylpiperidin-4-yl)-5-cyano-4,7-dihydro-2H-pyrazolo[3,4-b]pyridine] | 226
CC(C)(C)OC(=O)N1CCCC(C2=C(C#N)C(c3cccc4nonc34)c3c[nH]nc3N2)C1 (centres unmarked) [Example 1004, 4-(2,1,3-Benzoxadiazol-4-yl)-6-(1-t-butoxycarbonylpiperidin-3-yl)-5-cyano-4,7-dihydro-2H-pyrazolo[3,4-b]pyridine] | 229
N#CC1=C(C2CCCNC2)Nc2n[nH]cc2C1c1cccc2nonc12 (centres unmarked) [Example 1005, 4-(2,1,3-Benzoxadiazol-4-yl)-5-cyano-4,7-dihydro-6-(piperidin-3-yl)-2H-pyrazolo[3,4-b]pyridine] | 202
CN1CCCC(C2=C(C#N)C(c3cccc4nonc34)c3c[nH]nc3N2)C1 (centres unmarked) [Example 1006, 4-(2,1,3-Benzoxadiazol-4-yl)-5-cyano-4,7-dihydro-6-(1-methylpiperidin-3-yl)-2H-pyrazolo[3,4-b]pyridine] | 228
CC(C)(C)OC(=O)N1CC=C(C2=C(C#N)C(c3cccc4nonc34)c3c[nH]nc3N2)CC1 (centres unmarked) [Example 1012, 4-(2,1,3-Benzoxadiazol-4-yl)-6-(1-t-butoxycarbonyl-1,2,3,6-tetrahydropyridin-4-yl)-5-cyano-4,7-dihydro-2H-pyrazolo[3,4-b]pyridine] | 222
N#CC1=C(C2=CCNCC2)Nc2n[nH]cc2C1c1cccc2nonc12 (centres unmarked) [Example 1013, 4-(2,1,3-Benzoxadiazol-4-yl)-5-cyano-4,7-dihydro-6-(1,2,3,6-tetrahydropyridin-4-yl)-2H-pyrazolo[3,4-b]pyridine] | 180
CN1CC=C(C2=C(C#N)C(c3cccc4nonc34)c3c[nH]nc3N2)CC1 (centres unmarked) [Example 1014, 4-(2,1,3-Benzoxadiazol-4-yl)-5-cyano-4,7-dihydro-6-(1-methyl-1,2,3,6-tetrahydropyridin-4-yl)-2H-pyrazolo[3,4-b]pyridine] | 218
CN(CCC1=C(C#N)C(c2cccc3nonc23)c2c[nH]nc2N1)C(=O)OC(C)(C)C (centres unmarked) [Example 1015, 4-(2,1,3-Benzoxadiazol-4-yl)-6-(2-(N-t-butoxycarbonyl-N-methylamino)ethyl)-5-cyano-4,7-dihydro-2H-pyrazolo[3,4-b]-pyridine] | 240
